Assay results taken from ChEMBL document CHEMBL1126062, “Benzofuran bioisosteres of hallucinogenic tryptamines” (J Med Chem, 1992).

Assays:
[1] = target: T1, 5-hydroxytryptamine receptor 1A (Rattus norvegicus, UniProt P19327); experiment: Affinity on 5-hydroxytryptamine 1A receptor labeled by [3H]8-OH-DPAT
T1 sequence (P19327 whole entry): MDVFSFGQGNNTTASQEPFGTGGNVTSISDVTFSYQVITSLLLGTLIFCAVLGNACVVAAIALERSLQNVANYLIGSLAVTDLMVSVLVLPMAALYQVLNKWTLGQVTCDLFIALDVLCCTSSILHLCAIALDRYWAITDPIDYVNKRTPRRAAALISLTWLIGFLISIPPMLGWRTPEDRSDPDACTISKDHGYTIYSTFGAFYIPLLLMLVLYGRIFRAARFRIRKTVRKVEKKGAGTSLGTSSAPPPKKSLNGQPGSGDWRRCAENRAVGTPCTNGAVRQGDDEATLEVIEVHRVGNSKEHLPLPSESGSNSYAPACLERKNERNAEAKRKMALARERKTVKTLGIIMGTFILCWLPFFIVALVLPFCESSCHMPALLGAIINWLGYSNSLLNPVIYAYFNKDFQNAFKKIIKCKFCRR

[2] = target: Serotonin 2 (5-HT2) receptor (Rattus norvegicus, UniProt P30994+P08909+P14842); experiment: Affinity on 5-hydroxytryptamine 2 receptor labeled by [125I]DOI; format: protein assay

Compound | Ki [1] [nM] | Ki [2] [nM]
COc1ccc2[nH]cc(CCN(C)C)c2c1 [MEBUFOTENIN] | 69 | –
COc1ccc2occ(CCN(C)C)c2c1 | 101 | 95
COc1ccc2occ(CC(C)N)c2c1 (stereo in doubt; 4) | 779 | 27.1
COc1ccc2occ(CC(C)N)c2c1 (racemic) | 445 | 42
